Patent US5604255A, “N-(1-thienylcycloalkyl)alkenylamines for treatment of neurotoxic injury” (priority 1994, dated 1997)

Tests used:
Quis = assay: NMDA/KA antagonist assay in embryo retina: blocking Quis neurotoxicity; parameters: species or system chick embryo; conditions: Quis 50 μM, 30 min, 37° C.; footnote: @ up to 500 μM
Protocol: (§1) A 15-day old chick embryo retina, incubated for 30 min. in a balanced salt solution (BSS) containing 1 mM Glu, developed a full lesion characteristic of an immature mouse retina following s.c. administration of Glu. Other excitotoxin agonists also produce acute lesions within 30 min., each agent being effective at a concentration proportional to its known excitatory and toxic potencies. The pattern of cellular degeneration is restricted in each case to the ganglion cell, inner plexiform and inner nuclear layers, but within these areas certain agonists induce different patterns of degeneration, the differences being most pronounced between NMA and KA. Four agonists were employed in the present test, each at a concentration established previously to be the lowest concentration required to consistently cause a fully-developed retinal lesion: KA (25 μM), Quis (50 μM), NMA (200 μM) and Glu (1000 μM). Compound No. 1 and other PCP-like compounds were tested at various concentrations for their ability to prevent KA, Quis, NMA or Glu neurotoxicity. […] Internal controls in each experiment consisted of at least six specimens being incubated with agonist alone. A typical toxic reaction had to be present in all controls and absent from all experimental specimens in order to qualify as a blocking effect. The method of tissue preparation was as follows: 15-day old chick embryos were decapitated and their eyes removed and cut into quadrants after excising the cornea and removing the lens, vitreous and iris. The retinal quadrants were then gently separated from the pigment epithelium and incubated for 30 min. at 37° C. in BSS to which an agonist or agonist plus antagonist was added. The BSS contained 140 mMNa^+, 5.0 mM K^+, 0.5 mM Ca^++, 4.5 mM Mg^++, 150 mM Cl^-, 5.6 mM glucose and bicarbonate/phosphate buffer (pH 7.3). […]

PCP receptors = assay: Radioreceptor assay, displacement of 3H-TCP from rat brain membranes; conditions: read-out: Ki apparent; units + SEM; 1 nM 3H-TCP, whole rat brain membranes, 1 hour incubation
NMDA [1] = conditions: Anis et al, Br. J. Pharmacol., 79, 565 (1983); cited from earlier work
NMA = assay: NMDA/KA antagonist assay in embryo retina: blocking NMA neurotoxicity; parameters: species or system chick embryo; conditions: NMA 200 μM, 30 min, 37° C.
Protocol: as §1

rats = assay: Behavioral assay, stereotyped behavior in rats; format: in vivo, Male Sprague-Dawley rats; conditions: for Stereotyped Behavior ED50: i.c.v., at time of maximal behavioral effect, parentheses: 95% confidence intervals
Protocol: Compound No. 1 was tested in comparison with PCP and TCP by an in vivo assay which determined stereotypic behavior in rats treated with the compounds. Male Sprague-Dawley rats weighing 200 to 250 g were used in the behavioral experiments. Each rat was used only once. Rats were anesthetized lightly with ether before a 20-gauge needle was used to make a hole in the rat's skull for i.c.v. injection of drugs at a later date. The rats were allowed to recover for at least 1 day before being used in the behavioral assays. On the day of the experiment, rats were placed individually into plastic rat cages and allowed at least 1 hr to acclimate before testing. Drugs were administered to rats in a random, single-blind fashion. Behavioral ratings were taken at 5-min intervals up to 1 hr after drug administration i.c.v. using the PCP rating scale as described by Sturgeon et al [Sturgeon, R. D., Fessler, R. G. and Meltzer, H. Y., "Behavioral Rating Scales for Accessing Phencyclidine-Induced Locomotor Activity, Stereotyped Behavior And Ataxia In Rats", European J. Pharmacol. 59 169, (1970)].
Dose-response curves for each treatment were determined at the time of maximal behavioral effect. Peak effects were found 5 min after i.c.v. administration of PCP (25-20000 nmol/rat). […] A rating of 5 in the PCP-rating scale was considered as complete stereotyped behavior, that is, a 100% response. At least 21 rats (at least seven rats/dose) were used to determine each dose-response curve and EDso values. ED50 values and dose-response curves were evaluated using a computerized Finney assay [Statistical Methods In Biological Assays, 2nd Edn., Hatner Pub. Co., New York (1964)].
The ability of the tested compounds to induce stereotyped behavior was assessed at 2.5, 5 and 10 minutes and thereafter every 5 min up to 1 hr after i.c.v., i.p., or s.c. administration.

KA = assay: NMDA/KA antagonist assay in embryo retina: blocking KA neurotoxicity; parameters: species or system chick embryo; conditions: KA 25 μM, 30 min, 37° C.; tested from 1000 μM downward
Protocol: as §1

hippocampal neurons [2] = assay: Chronic hypoxic insult assay (MTT neuronal survival); format: cell-based, Sprague-Dawley rats
Protocol: Compound No. 1 was tested for its ability to protect hippocampal neurons from hypoxia-induced cell death. Cultures of hippocampal neurons were prepared from embryonic day 17 Sprague-Dawley rats. The hippocampi were dissociated into a single cell suspension by incubation with 0.25% trypsin, 40 mg/ml DNase followed by gentle trituration through a Pasteur pipet. The cells were plated in a polylysine-coated 96-well plate and maintained in a chemically defined medium until use. The cells were grown for 2 to 3 weeks in 5% CO2 -in-air humidified environment at 36° C. to establish a thick network of neuronal processes with numerous spontaneously active synapses. […] Following 2 hours of exposure to normal O2 tension, the cultures were processed for morphological and quantitive biochemical neuronal cell viability assays.
The neuronal survival assay utilized the compound MTT [(3-(4,5-dimethylthiazol-2-yl)-2,5-diphenyl tetrazolium bromide)], a pale yellow substrate that is cleaved by the mitochondrial enzyme succinate-dehydrogenase to yield a dark blue formazan product. […] The precipitate was then solubilized using 0.08N HCl/isopropanol mixture and the absorbance measured with an ELISA plate reader (Dynatech MR600) using a test wavelength of 570 nm and a reference wavelength of 630 nm. […]

hippocampal neurons [3] = assay: Glutamate neurotoxicity assay (MTT neuronal survival); format: cell-based, Sprague-Dawley rats; conditions: for Protection from glutamate toxicity: 500 μM glutamate, 1 hour; for Optical Density (MTT, viable cells): units + SDM, 500 μM glutamate 1 hour, control 0.163, glutamate 0.092
Protocol: Compound No. 1 was tested for its ability to protect hippocampal neurons from hypoxia-induced cell death. Cultures of hippocampal neurons were prepared from embryonic day 17 Sprague-Dawley rats. The hippocampi were dissociated into a single cell suspension by incubation with 0.25% trypsin, 40 mg/ml DNase followed by gentle trituration through a Pasteur pipet. The cells were plated in a polylysine-coated 96-well plate and maintained in a chemically defined medium until use. The cells were grown for 2 to 3 weeks in 5% CO2 -in-air humidified environment at 36° C. to establish a thick network of neuronal processes with numerous spontaneously active synapses. Exposure to hypoxic/anoxic environment was accomplished by placing the cultures in an anaerobic chamber, and flushing it with a mixture of 95% N2 +5% CO2 gas to rapidly drop the O2 tension to near zero. The O2 tension was maintained at near zero using a disposable H2 +CO2 generator envelope with palladium catalyst. Compound No. 1 was added to the culture medium prior to incubation in the anaerobic chamber and maintained there for 6 hours. Following 2 hours of exposure to normal O2 tension, the cultures were processed for morphological and quantitive biochemical neuronal cell viability assays.
The neuronal survival assay utilized the compound MTT [(3-(4,5-dimethylthiazol-2-yl)-2,5-diphenyl tetrazolium bromide)], a pale yellow substrate that is cleaved by the mitochondrial enzyme succinate-dehydrogenase to yield a dark blue formazan product. This process requires active mitochondria, present only in live cells. Cultures of hippocampal neurons grown in 96-well plates were incubated with 1 mg/ml MTT at 36° C. in a 10% CO2 -in-air incubator for 30-60 min. At the end of the incubation, a dark blue precipitate outlined only viable cells. The precipitate was then solubilized using 0.08N HCl/isopropanol mixture and the absorbance measured with an ELISA plate reader (Dynatech MR600) using a test wavelength of 570 nm and a reference wavelength of 630 nm. The resulting optical density is directly proportional to the number of viable cells.
Compound No. 1 was tested for its ability to protect neurons from glutamate-induced neurotoxicity, which selectively kills mature neurons while sparing glial cells. Neuronal cells were prepared and cell viability assays were performed as described in the chronic hypoxia insult assay, above.
Hippocampal cultures were exposed to 500 μM glutamate for 1 hour either in the presence or absence of Compound No. 1 and immediately thereafter processed for qualitative (morphological) and quantitative viability assay.

hippocampal neurons [4] = assay: Acute azide toxicity assay (MTT neuronal survival); format: cell-based, Sprague-Dawley rats
[5] = tested on: [^3 H]PCP binding sites, rat cerebral cortical membranes; conditions: Goldman et al, FEBS Lett., 170, 333-336 (1985); cited from earlier work
NMDA [6] = conditions: Berry et al, Eur. J. Pharm., 96, 261-267 (1983); spinal neurones; cited from earlier work

Row | SMILES | Protection vs Quis (Quis) | Ki (PCP receptors) | Minimal concentration required to provide total protection vs NMA (NMA) | Stereotyped Behavior ED50 (rats) | Protection vs KA (KA) | other results
1 | c1ccc(C2(N3CCCCC3)CCCCC2)cc1 [PCP, Phencyclidine] | No Activity | 96 ± 15 nM | 1 µM | 150 (120-180) nmol/rat | No Activity | Reduction of the excitatory effects of NMDA as compared to KA and QUIS (NMDA [1]): reduce selectively the excitatory effects of NMDA; Time of peak behavioral effect (rats; after i.c.v. administration, 25-20000 nmol/rat): 5 min; Time of peak behavioral effect (rats; after i.p. administration, 2.0-32 mg/kg): 15 min
2 | S=C=Nc1cccc(C2(N3CCCCC3)CCCCC2)c1 [Metaphit, 1-[1-(3-isothiocyanatophenyl)cyclohexyl]piperidine] | No Activity |  | 50 µM |  | No Activity | 
3 | c1csc(C2(N3CCCCC3)CCCCC2)c1 [TCP] |  | 20 ± 6 nM |  | 56 (49-76) nmol/rat |  | 
4 | C1=CCN(C2(c3cccs3)CCCCC2)CC1 [Compound No. 1, 1-[1-(2-thienyl)-cyclohexyl]-1,2,5,6-tetrahydropyridine] | Zero @ 250 μM | 12 ± 2 nM | 0.25 µM | 43 (34-57) nmol/rat | Partial @ 5 μM | EC (maximum protection) (hippocampal neurons [2]; Rattus norvegicus, Hippocampal neuron, hypoxia 6 hours, read-out: Concentration giving maximum protection of neurons from hypoxic insult): 50 µM; Optical Density (MTT, viable cells) (hippocampal neurons [2]; units + SDM, hypoxia + 50 μM compound, 6 hours, untreated control 0.163, hypoxia 0.062): 0.173 ± .033; Protection from glutamate toxicity (hippocampal neurons [3]; 5 μM compound): significant protection; Protection from glutamate toxicity (hippocampal neurons [3]; 50 μM compound): Nearly complete protection; Optical Density (MTT, viable cells) (hippocampal neurons [3]; 5 μM compound): 0.147 ± .017; Optical Density (MTT, viable cells) (hippocampal neurons [3]; 50 μM compound): 0.157 ± .017; Protection of neurons from sodium azide poisoning (hippocampal neurons [4]; 1 μM compound, 10 μM sodium azide, 1 hour): significant protection; Optical Density (MTT, viable cells) (hippocampal neurons [4]; units + SDM, sodium azide 1 hour + 1 μM compound, control 0.146, sodium azide 0.084): 0.138 ± .013
5 | CNC1(c2ccccc2Cl)CCCCC1=O (stereo not drawn) [ketamine] |  |  |  |  |  | Reduction of the excitatory effects of NMDA as compared to KA and QUIS (NMDA [1]): reduce selectively the excitatory effects of NMDA
6 | CC1CCCN(C2(c3ccccc3)CCCCC2)C1 (single isomer, unassigned; (+)) [(+)-PCMP, (+)-1-(1-phenylcyclohexyl)-3-methylpiperidine] |  |  |  |  |  | Inhibition of specific binding of [^3 H]PCP [5]: potent inhibitor; Stereoselective effects over isomer counterpart in reducing the excitatory action of NMDA (NMDA [6]): confirmed
7 | CC1CCC(c2ccccc2)(N2CCCCC2)CC1 (stereo not drawn) [cis-N-(1-phenyl-4-methylcyclohexyl)piperidine] |  |  |  |  |  | Stereoselective effects over isomer counterpart in reducing the excitatory action of NMDA (NMDA [6]): confirmed
